The values that follow come from patent US20170253607A1, “LONG-ACTING HIV PROTEASE INHIBITOR” (Shionogi & Co., Ltd., priority 2014, published 2017).

For one data set, the target named is HIV-1 PR (Human immunodeficiency virus type 1 group M subtype B, UniProt P04585). As to the kind of experiment: HIV-protease inhibitory activity assay (FRET peptide substrate). Type of data set: biochemical. The conditions noted are these: Test Example 1. The method, boiled down:
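Inhibition of HIV-1 protease was measured as loss of fluorescence dequenching of a HiLyte Fluor 488/QXL 520 peptide at 2 μmol/L, pH 4.8, room temperature, 60 minute reaction. IC50 was derived by nonlinear four-parameter fitting.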

A short description of data set [1]: Protein binding test (equilibrium dialysis, unbound ratio fu in serum). Type of data set: in vitro ADME. The conditions noted are these: rat serum, equilibrium dialysis 24 hours, 37° C., 2 μg/mL. The method, then:
Assay condition: Evaluation method; Equilibrium dialysis method, Reaction time; 24 hours, Reaction temperature; 37° C., Assay concentration; 2 μg/mL A solution of the compound was added to each serum and mixed to prepare the serum samples with above concentration. The serum sample was put into one side of an equilibrium dialysis apparatus with dialysis membrane and phosphate buffered saline (PBS) was also put to another side of the apparatus. The apparatus was incubated at 37° C. for 24 hours. After incubation, the serum and PBS samples were collected and the compound concentrations in both samples were measured by LC/MS/MS. Fu was calculated by dividing the concentration in PBS by the concentration in the serum.
Background: Equilibrium dialysis compares concentrations on both sides of a semipermeable membrane.

Data set [2] in a line: Evaluation of total body clearance (CLtot), intravenous administration. In kind it is in vivo, Sprague-Dawley (SD). The conditions noted are these: rat (SD), intravenous administration 0.5-10 mg/kg; CLtot = dose/AUC. The method, boiled down:
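Plasma levels quantified by LC/MS/MS after intravenous tail-vein dosing (0.5-10 mg/kg, compound-dependent; n=2-3). AUC from pharmacokinetic analysis; total clearance calculated as dose/AUC.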

Molecules are shown by their SMILES.

In general, IC50 refers to the point on the concentration scale where inhibition reaches its midpoint. A higher IC50 goes with lower potency. `COc1ccc(S(=O)(=O)N(CC2CCCC2)CC(O)C(Cc2ccc(OCc3ccccc3-n3nc4c(c3C(=O)O)CC(C)(C)CC4)cc2)NC(=O)OC2COC3(C)OCCC23)cc1` (stereo not drawn) [Compound I-139] registered a half-inhibitory concentration (IC50) against HIV-1 PR of 0.78 nM. The rat_fu in data set [1] was <0.1%. The same compound yielded a rat_CLt in data set [2] of 0.286 mL/min/kg.

In turn, `COc1ccc(S(=O)(=O)N(CC2CCCC2)CC(O)C(Cc2ccc(OCc3ccccc3-n3nc4c(c3C(=O)O)CC(C(F)(F)F)CC4)cc2)NC(=O)OC2COC3(C)OCCC23)cc1` (stereo not drawn) [Compound I-140] displayed an IC50 at HIV-1 PR of 1.42 nM. Further, the rat_fu in data set [1] is <0.1%. The compound further had a rat_CLt in data set [2] of 0.111 mL/min/kg.

`COc1ccc(S(=O)(=O)N(CC2CCCC2)CC(O)C(Cc2ccc(OCc3ccccc3-n3nc4c(c3C(=O)O)CC(C(C)(C)C)CC4)cc2)NC(=O)OC2COC3(C)OCCC23)cc1` (stereo not drawn) [Compound I-145] came in with an IC50 against HIV-1 PR of 0.81 nM. For the same compound, in data set [1], the rat_fu is recorded as <0.1%. The rat_CLt in data set [2] turned out to be 1.29 mL/min/kg.

Turning to `COc1ccc(S(=O)(=O)N(CC2CCCC2)CC(O)C(Cc2ccc(OCc3ccccc3-n3nc4c(c3C(=O)O)CC3(CCCC3)CC4)cc2)NC(=O)OC2COC3(C)OCCC23)cc1` (stereo not drawn) [Compound I-146], the IC50 against HIV-1 PR was 0.92 nM. In addition, in data set [1], the rat_fu is <0.1%. Further, the rat_CLt in data set [2] amounted to 0.584 mL/min/kg.

`CC1(C)CCc2sc(-c3ccccc3COc3ccc(CC(NC(=O)OC4COC5(C)OCCC45)C(O)CN(CC(F)F)S(=O)(=O)c4ccc5ncsc5c4)cc3)c(C(=O)O)c2C1` (stereo not drawn) [Compound I-147] displayed an IC50 at HIV-1 PR of 1.01 nM. In addition, the rat_fu in data set [1] was <0.1%. The rat_CLt in data set [2] was found to be 1.68 mL/min/kg.

Turning to `COc1ccc(S(=O)(=O)N(CC2CCC(=O)N2)CC(O)C(Cc2ccc(OCc3ccccc3-c3sc4c(c3C(=O)O)CC(C)(C)CC4)cc2)NC(=O)OC2COC3(C)OCCC23)cc1` (stereo not drawn) [Compound I-148], 1.16 nM corresponded to half-maximal inhibition at HIV-1 PR (IC50). Besides, the rat_fu in data set [1] is <0.1%. The rat_CLt in data set [2] was 2.5 mL/min/kg.

Regarding `CC1(C)CCc2sc(-c3ccc(OCCN(CC(O)C(Cc4ccccc4)NC(=O)OC4COC5(C)OCCC45)S(=O)(=O)c4ccc5ncsc5c4)cc3)c(C(=O)O)c2C1` (stereo not drawn) [Compound I-165], the half-maximal inhibitory concentration (IC50) against HIV-1 PR was 3.21 nM. The rat_fu in data set [1] is <0.1%. For the same compound, the rat_CLt in data set [2] is 1.08 mL/min/kg.

Compound `Cc1cc(OCCN(CC(O)C(Cc2ccccc2)NC(=O)OC2COC3(C)OCCC23)S(=O)(=O)c2ccc3ncsc3c2)ccc1-c1sc2c(c1C(=O)O)CC(C)(C)CC2` (stereo not drawn) [Compound I-166] yielded an IC50 on HIV-1 PR of 8.83 nM. Further, the rat_fu in data set [1] is <0.1%. For the same compound, the rat_CLt in data set [2] came out at 0.194 mL/min/kg.

In turn, `CC(C)CN(CC(O)C(Cc1ccc(OCCNC(=O)c2cc(Cl)cc(Cl)c2O)cc1)NC(=O)OC1COC2(C)OCCC12)S(=O)(=O)c1ccc2c(c1)OCO2` (stereo not drawn) [Compound I-168] had an IC50 at HIV-1 PR of 1.83 nM. Further, the rat_fu in data set [1] is given as <0.1%. This compound displayed a rat_CLt in data set [2] of 5.68 mL/min/kg.

For `CC(C)CN(CC(O)C(Cc1ccc(OCc2ccccc2-c2ccc3c(c2)C(=O)C(c2ccc(F)cc2)C3=O)cc1)NC(=O)OC1COC2(C)OCCC12)S(=O)(=O)c1ccc2ncsc2c1` (stereo not drawn) [Compound I-175], the midpoint of inhibition against HIV-1 PR, the IC50, lay at 2 nM. For the same compound, the rat_fu in data set [1] is recorded as <0.1%. In data set [2], this compound returned a rat_CLt of 4.44 mL/min/kg.

`COc1ccc(S(=O)(=O)N(CC(C)C)CC(O)C(Cc2ccc(OCc3ncc(F)cc3-c3sc4c(c3C(=O)O)CC(C)(C)CC4)cc2)NC(=O)OC2COC3(C)OCCC23)cc1` (stereo not drawn) [Compound I-182] had a concentration for half-maximal inhibition (IC50) against HIV-1 PR of 1.44 nM. Further, the rat_fu in data set [1] is given as <0.1%. The same compound registered a rat_CLt in data set [2] of 3.84 mL/min/kg.

In turn, `COc1ccc(S(=O)(=O)N(CC(C)C)CC(O)C(Cc2ccc(OCc3nccnc3-c3ccc(-c4sc5c(c4C(=O)O)CC(C)(C)CC5)cc3)cc2)NC(=O)OC2COC3(C)OCCC23)cc1` (stereo not drawn) [Compound I-195] gave a half-maximal inhibitory concentration (IC50) against HIV-1 PR of 2.15 nM. Besides, the rat_fu in data set [1] is <0.1%. Also, the rat_CLt in data set [2] is 6.74 mL/min/kg.

As to `COc1ccc(S(=O)(=O)N(CC(C)C)CC(O)C(Cc2ccc(OCc3ccccc3-c3ncc4c(c3C(=O)O)CCC(C)(C)C4)cc2)NC(=O)OC2COC3(C)OCCC23)cc1` (stereo not drawn) [Compound I-197], the IC50 against HIV-1 PR is 1.94 nM. Also, in data set [1], the rat_fu was <0.1%. For the same compound, the rat_CLt in data set [2] was determined as 3.81 mL/min/kg.

`COc1ccc(S(=O)(=O)N(CC2CCCC2)CC(O)C(Cc2ccc(OCc3cc(C(F)(F)F)ccc3-c3nc4n(c3C(=O)O)CCCC4)cc2)NC(=O)OC2COC3(C)OCCC23)cc1` (stereo not drawn) [Compound I-205] showed an IC50 against HIV-1 PR of 2.03 nM. The rat_fu in data set [1] is on record as <0.1%. In data set [2], the rat_CLt was determined as 1.68 mL/min/kg.

At HIV-1 PR, `COc1ccc(S(=O)(=O)N(CC(C)C)CC(O)C(Cc2ccc(OCc3cc(N(C)C)ccc3-c3sc4c(c3C(=O)O)CC(C)(C)CC4)cc2)NC(=O)OC2COC3(C)OCCC23)cc1` (stereo not drawn) [Compound I-206] returned an IC50 of 3.38 nM. Besides, the rat_fu in data set [1] is reported as <0.1%. Further, in data set [2], the rat_CLt worked out at 0.162 mL/min/kg.

On HIV-1 PR, `COc1ccc(S(=O)(=O)N(CC(C)C)C[C@@H](O)[C@H](Cc2ccc(NC3CN(c4ccccc4-c4sc5c(c4C(=O)O)CC(C)(C)CC5)C3)cc2)NC(=O)O[C@H]2CO[C@@]3(C)OCC[C@@H]23)cc1` [Compound I-228] returned an IC50 of 3.98 nM. Moreover, in data set [1], the rat_fu is <0.1%. In data set [2], this compound registered a rat_CLt of 0.144 mL/min/kg.

In the case of `COc1ccc(S(=O)(=O)N(CC(C)C)CC(O)C(Cc2ccc(NCC3=C(c4sc5c(c4C(=O)O)CC(C)(C)CC5)CCCC3)cc2)NC(=O)OC2COC3(C)OCCC23)cc1` (stereo not drawn) [Compound I-231], on HIV-1 PR, half-maximal inhibition (IC50) was put at 3.91 nM. Also, the rat_fu in data set [1] is on record as <0.1%. In addition, in data set [2], the rat_CLt came out at 1.02 mL/min/kg.

At HIV-1 PR, `COc1ccc(S(=O)(=O)N(CC(C)C)CC(O)C(Cc2ccc(N3CCC(Oc4ccccc4-c4sc5c(c4C(=O)O)CC(C)(C)CC5)C3)cc2)NC(=O)OC2COC3(C)OCCC23)cc1` (stereo not drawn) [Compound I-234] showed an IC50 of 3.5 nM. Also, in data set [1], the rat_fu is recorded as <0.1%. The compound further showed a rat_CLt in data set [2] of 1.49 mL/min/kg.

`COc1ccc(S(=O)(=O)N(CC(C)C)CC(O)C(Cc2ccc(N3CCC(Oc4ccccc4-c4sc5c(c4C(=O)O)CC(C)(C)CC5)C3)cc2)NC(=O)OC2COC3(C)OCCC23)cc1` (stereo not drawn) [Compound I-235] displayed an IC50 against HIV-1 PR of 3.56 nM. The rat_fu in data set [1] was <0.1%. The rat_CLt in data set [2] came out at 4.05 mL/min/kg.

The compound `COc1ccc(S(=O)(=O)N(CC(C)C)CC(O)C(Cc2ccc(N(C)CC3=C(c4sc5c(c4C(=O)O)CC(C)(C)CC5)CCCC3)cc2)NC(=O)OC2COC3(C)OCCC23)cc1` (stereo not drawn) [Compound I-236] had an IC50 on HIV-1 PR of 2.9 nM. In addition, in data set [1], the rat_fu is <0.1%. Besides, in data set [2], the rat_CLt turned out to be 0.763 mL/min/kg.

As to `COc1ccc(S(=O)(=O)N(CC(C)C)CC(O)C(Cc2ccc(NC3CCN(c4ccccc4-c4sc5c(c4C(=O)O)CC(C)(C)CC5)C3)cc2)NC(=O)OC2COC3(C)OCCC23)cc1` (stereo not drawn) [Compound I-238], the IC50 against HIV-1 PR came out at 2.52 nM. For the same compound, the rat_fu in data set [1] is <0.1%. The compound further came in with a rat_CLt in data set [2] of 3.05 mL/min/kg.

Consider `COc1ccc(S(=O)(=O)N(CC(C)C)CC(O)C(Cc2ccc(N(C)CCCc3ccccc3-c3sc4c(c3C(=O)O)CC(C)(C)CC4)cc2)NC(=O)OC2COC3(C)OCCC23)cc1` (stereo not drawn) [Compound I-240], for which 2.02 nM corresponded to half-maximal inhibition against HIV-1 PR (IC50). Further, the rat_fu in data set [1] is on record as <0.1%. Moreover, the rat_CLt in data set [2] turned out to be 4.5 mL/min/kg.
